The source made the active and inactive calls. No cut-off for these calls is given here.
Experiments:
[1] = tested on: Bacteria; assay: (§1) Inhibition of Beta-lactamase AmpC (unknown origin) using CENTA as chromogenic substrate assessed as enzyme recovery by measuring residual activity at approximately IC90 preincubated for 5 mins in presence of triton X-0.01% followed by substrate addition and measured for 80 sec by absorbance based analysis relative to control; settings: time 380.0 sec
[2] = Aggregation property of compound in DMEM media assessed as critical aggregation concentration by DLS assay; type: physicochemical
[3] = Absorption property of compound in DMEM media at 100 to 200 uM at 500 to 700 nm by luciferase assay; type: physicochemical; settings: dose 100-200 µM
[4] = tested on: SARS-CoV-2; assay: Antiviral activity against SARS CoV-2 spike-pseudotyped lentivirus infected in human A549-hACE2-TMPRSS2 cells assessed as inhibition of viral entry incubated for 24 hrs in absence of BSA by luciferase reporter assay; type: functional, organism-based; settings: Severe acute respiratory syndrome coronavirus 2, A549-hACE2-TMPRSS2, 24 h
[5] = Inhibition of Beta-lactamase AmpC (unknown origin) using CENTA as chromogenic substrate preincubated for 5 mins followed by substrate addition and measured for 80 sec by absorbance based analysis; set-up: species or system Bacteria
[6] = tested on: Bacteria; assay: as §1, with “of 10 mg/ml BSA” for “of triton X-0.01%”, “by enzyme” for “by substrate”, “measured after 5 mins” for “measured for 80 sec”; settings: time 10.0 min
[7] = tested on: SARS-CoV; assay: Antiviral activity against HIV-Luc pseudotyped SARS CoV infected in Vero E6 cells assessed as reduction in virus entry preincubated for 30 mins followed by infection in cells and measured after 36 hrs by luciferase assay; type: functional, organism-based; settings: Severe acute respiratory syndrome-related coronavirus, Vero C1008
[8] = Aggregation property of compound in 50 mM KPi buffer at pH 7 assessed as critical aggregation concentration by DLS assay; type: physicochemical
[9] = target: Spike glycoprotein (Severe acute respiratory syndrome coronavirus 2) (UniProt P0DTC2); assay: Binding affinity to Alex-fluor-647 labeled SARS-CoV-2 spike protein assessed as protein-colloid complex formation by measuring fluorescence puncta formation incubated for 5 mins in presence of 0.025% Tween-80 by confocal microscopic analysis
[10] = tested on: SARS-CoV-2; assay: Antiviral activity against SARS-CoV-2; type: functional, organism-based; settings: Severe acute respiratory syndrome coronavirus 2
[11] = species on record: Sus scrofa; assay: (§2) Inhibition of porcine heart MDH using oxaloacetic acid as substrate assessed as enzyme recovery by measuring residual activity at approximately IC90 preincubated for 5 mins in presence of 10 mg/ml BSA followed by enzyme addition and measured after 5 mins by absorbance based analysis relative to control; settings: time 10.0 min
[12] = tested on: SARS-CoV-2; assay: Antiviral activity against luciferase independent SARS CoV-2 spike-pseudotyped lentivirus infected in human A549-hACE2-TMPRSS2 cells assessed as inhibition of viral entry measured after 24 hrs before centrifugation by luciferase reporter assay; type: functional, organism-based; settings: Severe acute respiratory syndrome coronavirus 2, A549-hACE2-TMPRSS2
[13] = target: Spike glycoprotein (Severe acute respiratory syndrome coronavirus 2) (UniProt P0DTC2); assay: (§3) Binding affinity to Alex-fluor-647 labeled SARS-CoV-2 spike protein assessed as protein-colloid complex formation by measuring fluorescence puncta formation incubated for 5 mins by confocal microscopic analysis
[14] = tested on: SARS-CoV-2; assay: Antiviral activity against luciferase independent SARS CoV-2 spike-pseudotyped lentivirus infected in human A549-hACE2-TMPRSS2 cells assessed as inhibition of viral entry by measuring reduction in luciferase activity incubated for 24 hrs by luciferase reporter assay; type: functional, organism-based; settings: Severe acute respiratory syndrome coronavirus 2
[15] = target: Spike glycoprotein (Severe acute respiratory syndrome coronavirus 2) (UniProt P0DTC2); assay: as §3, with “puncta formation compound preincubated with 10 mg/ml BSA for 5 mins followed by protein addition and further incubated for” for “puncta formation incubated for”
[16] = Inhibition of porcine heart MDH using oxaloacetic acid as substrate preincubated for 5 mins followed by substrate and […] addition and measured for 80 sec by absorbance based analysis; set-up: species or system Sus scrofa
[17] = species on record: Sus scrofa; assay: as §2, with “of triton X-0.01%” for “of 10 mg/ml BSA”, “by substrate and […]” for “by enzyme”, “measured for 80 sec” for “measured after 5 mins”; settings: time 380.0 sec
[18] = tested on: SARS-CoV-2; assay: Antiviral activity against SARS-CoV-2 infected in Vero E6 cells assessed as reduction in viral infectivity; type: functional, organism-based; settings: Severe acute respiratory syndrome coronavirus 2, Vero C1008
[19] = Cytotoxicity against human A549-hACE2-TMPRSS2 assessed as reduction in cell viability incubated for 24 hrs by MTT assay; type: toxicity, cell-based; settings: a549-hace2-tmprss2, 24 h
[20] = tested on: SARS-CoV-2; assay: Antiviral activity against luciferase independent SARS CoV-2 spike-pseudotyped lentivirus infected in human A549-hACE2-TMPRSS2 cells assessed as inhibition of viral entry at 31.6 to 63.3 uM compound spin-down for 1 hr followed by viral infection and measured after 24 hrs by luciferase reporter assay; type: functional, organism-based; settings: Severe acute respiratory syndrome coronavirus 2, dose 31.6-63.3 µM, time 25.0 hrs
[21] = species on record: Sus scrofa; assay: Inhibition of porcine heart MDH using oxaloacetic acid as substrate at approximately IC90 spin-down for 1 hr followed by enzyme addition and measured after 5 mins by absorbance based analysis; settings: time 65.0 min
[22] = tested on: SARS-CoV-2; assay: Antiviral activity against SARS-CoV-2 pseudovirus infected in 293T/ACE2 cells assessed as reduction in virus entry preincubated with compound followed by infection in cells and measured after 48 hrs by luciferase based assay; type: functional, organism-based; settings: Severe acute respiratory syndrome coronavirus 2, 293T/ACE2
[23] = tested on: SARS-CoV-2; assay: Antiviral activity against SARS-CoV-2 infected in Vero E6 cells assessed as reduction in virus induced cytopathic effect pretreated for 30 mins followed by virus infection and measured after 72 hrs by MTS assay; type: functional, organism-based; settings: Severe acute respiratory syndrome coronavirus 2, Vero C1008
[24] = target: Spike glycoprotein (Severe acute respiratory syndrome coronavirus 2) (UniProt P0DTC2); assay: Binding affinity to Alex-fluor-647 labeled SARS-CoV-2 spike protein assessed as protein-colloid complex formation by measuring fluorescence puncta formation at 200 uM incubated for 5 mins by confocal microscopic analysis
[25] = tested on: SARS-CoV-2; assay: Antiviral activity against SARS CoV-2 spike-pseudotyped lentivirus infected in human A549-hACE2-TMPRSS2 cells assessed as inhibition of viral entry preincubated with 10 mg/ml BSA for 5 mins followed by viral infection and further incubated for 24 hrs by luciferase reporter assay; type: functional, organism-based; settings: Severe acute respiratory syndrome coronavirus 2, A549-hACE2-TMPRSS2
[26] = tested on: SARS-CoV-2; assay: Antiviral activity against luciferase independent SARS CoV-2 spike-pseudotyped lentivirus infected in human A549-hACE2-TMPRSS2 cells assessed as inhibition of viral entry compound spin-down for 1 hr followed by viral infection and measured after 24 hrs by luciferase reporter assay; type: functional, organism-based; settings: Severe acute respiratory syndrome coronavirus 2, A549-hACE2-TMPRSS2

SMILES | CAC [2] [µM] | Activity [3] | EC50 [4] [µM] | CAC [8] [µM] | Activity [11] [%] | EC50 [12] [µM] | Activity [14] | IC50 [16] [µM] | Activity [17] [%] | Activity [20] | also measured
O=C(OC[C@H]1O[C@@H](OC(=O)c2cc(O)c(O)c(O)c2)[C@H](OC(=O)c2cc(O)c(O)c(O)c2)[C@@H](OC(=O)c2cc(O)c(O)c(O)c2)[C@@H]1O)c1cc(O)c(O)c(O)c1 | 9.8 | Not Active | 0.07 | 12 | – | – | – | – | – | – | Activity [1]: 51%; IC50 [5]: 13 µM; Activity [6]: 80%; EC50 [7]: 2.86 µM
Cc1cc(O)c2c(c1)C(=O)c1cc(O)cc(O)c1C2=O [EMODIN] | 63.1 | Not Active | 2.21 | 8.6 | 67 | 2.22 | Active | 39 | – | – | Activity [9]: inactive; EC50 [10]: 25 µM; Activity [13]: Active; Activity [15]: inactive
COc1cc(/C=C/C(=O)CC(=O)/C=C/c2ccc(O)c(OC)c2)ccc1O [CURCUMIN] | 12 | Not Active | – | 26 | 124 | – | – | 14 | 116 | – | EC50 [18]: 16.3 µM
C=C(C)[C@@H]1CCC(C)=C[C@H]1c1c(O)cc(CCCCC)c(C(=O)O)c1O [CANNABIDIOLIC ACID] | 14 | Not Active | – | 61 | 61 | – | – | 47 | 81.3 | Active | Activity [19]: Toxic; inhibition [21]: Active
C[C@]12CC[C@@H]3c4ccc(OC(=O)c5ccccc5)cc4CC[C@H]3[C@@H]1CC[C@@H]2O [ESTRADIOL BENZOATE] | 1.8 | Not Active | – | 9.3 | 62 | – | – | 87 | 89.1 | – | EC50 [22]: 0.27 µM
Cc1ccc(C(=O)Nc2ccc(S(=O)(=O)O)c3cc(S(=O)(=O)O)cc(S(=O)(=O)O)c23)cc1NC(=O)c1cccc(NC(=O)Nc2cccc(C(=O)Nc3cc(C(=O)Nc4ccc(S(=O)(=O)O)c5cc(S(=O)(=O)O)cc(S(=O)(=O)O)c45)ccc3C)c2)c1 [SURAMIN] | – | Not Active | – | – | 91 | – | – | 1.2 | -4.8 | Active | EC50 [23]: 20 µM
CN1CCCC(n2nc(Cc3ccc(Cl)cc3)c3ccccc3c2=O)CC1 (centres undefined) [AZELASTINE] | – | – | 27 | – | – | 18.7 | Active | – | – | – | Activity [24]: inactive; EC50 [25]: 44.7 µM; EC50 [26]: 12.9 µM
CC1(C)[C@@H](O[C@H]2O[C@H](C(=O)O)[C@@H](O)[C@H](O)[C@H]2O[C@@H]2O[C@H](C(=O)O)[C@@H](O)[C@H](O)[C@H]2O)CC[C@]2(C)[C@H]3C(=O)C=C4[C@@H]5C[C@@](C)(C(=O)O)CC[C@]5(C)CC[C@@]4(C)[C@]3(C)CC[C@@H]12 [GLYCYRRHIZIN] | 15 | Not Active | – | 10 | – | 2.6 | Active | – | – | – | Activity [1]: 47%; EC50 [10]: 2500 µM; EC50 [26]: 45.7 µM; IC50 [5]: 33 µM; Activity [6]: 60%
CCCCCc1cc(O)c(C/C=C(\C)CCC=C(C)C)c(O)c1C(=O)O [CANNABIGEROLIC ACID] | 162 | Not Active | 1.21 | 12 | 68 | – | Active | 29 | 95.7 | Active | Activity [19]: Toxic; Activity [9]: inactive; Activity [13]: Active; Activity [15]: inactive; inhibition [21]: Active

— ChEMBL document CHEMBL5512692, “Colloidal Aggregation Confounds Cell-Based Covid-19 Antiviral Screens” (J Med Chem, 2024)
